# Tested on: Escherichia coli ATCC 8739
# Assay: Bactericidal activity, CFU counting method
# Assay type: cell-based
# Settings: E. coli ATCC 8739; 18 h at 37 °C; Control 9.47, Control with DMSO 9.30
# Description: (§1) The bacterial cultures: Escherichia coli ATCC 8739 and Staphylococcus aureus ATCC 65389 were grown on Luria–Bertani Agar for 18 h at 37 ^∘ C. The strain suspension was prepared in 0.85% saline, with an optical density equivalent to a 0.5 McFarland standard. Next, the following mixtures were prepared: 180 μ L of sterile enriched broth (BTL), 10 μ L of the bacterial suspension and 10 μ L of the tested compound (range 0.1–50 μ g/mL) solubilized in DMSO. As a negative control, only DMSO was added. As a sterility control, 180 μ L of BTL and 20 μ L saline were used. The microtiter plate was incubated at 37 ^∘ C for 18 h. The colony forming unit (CFU) method was used to evaluate the microbial population. The experiment was repeated three times. Gentamicin was used as the reference antibiotic.
row,SMILES,Number of CFU/mL (× 10^7)
1,"CC1CC(=O)OC(c2ccccc2)C1Br (stereo not drawn) [7b, Trans,trans-5-bromo-tetrahydro-4-methyl-6-phenylpyran-2-one]",8.63 × 10^7 CFU/mL
2,"CC1CC(=O)OC(c2cccc3ccccc23)C1Br (stereo not drawn) [7a, Trans,trans-5-bromo-tetrahydro-4-methyl-6-(naphthalen-1-yl)pyran-2-one]",5.21 × 10^7 CFU/mL
3,"C[C@@H]1CC(=O)O[C@@H]1[C@@H](O)c1cccc2ccccc12 [13a, Cis-dihydro-5-((S)-hydroxy(naphthalen-1-yl)methyl)-4-methylfuran-2(3H)-one]",6.02 × 10^7 CFU/mL

# Tested on: Staphylococcus aureus ATCC 65389
# Assay: Bactericidal activity, CFU counting method
# Assay type: cell-based
# Settings: S. aureus ATCC 65389; 18 h at 37 °C; Control 21.36, Control with DMSO 20.85
# Description: as §1
row,SMILES,Number of CFU/mL (× 10^7)
1,"CC1CC(=O)OC(c2ccccc2)C1Br (stereo not drawn) [7b, Trans,trans-5-bromo-tetrahydro-4-methyl-6-phenylpyran-2-one]",10.96 × 10^7 CFU/mL
2,"CC1CC(=O)OC(c2cccc3ccccc23)C1Br (stereo not drawn) [7a, Trans,trans-5-bromo-tetrahydro-4-methyl-6-(naphthalen-1-yl)pyran-2-one]",4.63 × 10^7 CFU/mL
3,"C[C@@H]1CC(=O)O[C@@H]1[C@@H](O)c1cccc2ccccc12 [13a, Cis-dihydro-5-((S)-hydroxy(naphthalen-1-yl)methyl)-4-methylfuran-2(3H)-one]",9.12 × 10^7 CFU/mL

# Same assay, conditions: S. aureus ATCC 65389; versus control
row,SMILES,less CFU/mL (reduction of the number of CFU/mL)
1,"CC1CC(=O)OC(c2cccc3ccccc23)C1Br (stereo not drawn) [7a, Trans,trans-5-bromo-tetrahydro-4-methyl-6-(naphthalen-1-yl)pyran-2-one]",78–83%

# Tested on: not listed separately
# Assay: MTT reduction cytotoxicity assay
# Assay type: cell-based, human
# Settings: human, AGS cells (human gastric adenocarcinoma), 0.1 μg/mL, 24 h, read-out: mean percentage of viable cells ± SD
# Description: (§2) Cell cultures: The L929 mouse fibroblasts and human gastric adenocarcinoma cell line AGS were used for in vitro cytotoxicity assays. The cells were maintained under standard conditions (37 ^∘ C, 5% CO 2 ) in 25 cm^2 tissue culture flasks in RPMI-1640 medium supplemented with 10% fetal bovine serum (FBS) and antibiotics: 100 U/mL penicillin and 100 μ g/mL streptomycin. The cell suspension containing 10 ^8 cells in 1 mL, was obtained by treatment of confluent monolayers with 0.25% trypsin solution, washed and subcultured. Cell cultures were supplemented with medium to maintain them in log phase growth. The viability of the cells was assessed by exclusion of trypan blue dye.
# (§3) Measurements of cellular metabolic activity and global growth inhibition: L929 cells were seeded into 96-well plates (2 × 10 ^5 cells/well) for 24 h, at 37 ^∘ C, 5% CO2 . Tested compounds 5a–c, 6a–c, 7a–c, 8a–c, 9b,c, 10b,c, 12a and 13a were diluted serially in RPMI-1640 medium in concentrations of 50, 20, 10, 5, 0.5 and 0.1 μ g/mL, added to the cells (100 μ L/well), and incubated under standard conditions for 24 h. The potential harmful effect of lactones on L929 and AGS cells was assessed by the ability of the cells to reduce 3-(4,5-dimethylthiazol-2-yl)-2,5-diphenyltetrazolium bromide (MTT) to formazan. The solution of MTT (5 mg/mL in PBS), was added to each well and the plates were incubated for 4h at 37 ^∘ C. Formazan crystals were dissolved with acidic isopropanol (0.1 M HCl in absolute isopropanol) and the plates were read in a plate reader (Victor 2) at 570 nm. The percentage of MTT reduction was calculated by comparing the absorbance of treated cells to that of untreated control cells. Results are expressed as the mean percentage of viable cells ± standard deviation (SD) of four independent experiments. Statistical significance was accepted at a p-value < 0.05.
row,SMILES,"viability at 24 h, 0.1 μg/mL"
1,"CC1CC(=O)OC(c2ccccc2)C1Br (stereo not drawn) [7b, Trans,trans-5-bromo-tetrahydro-4-methyl-6-phenylpyran-2-one]",40 ± 0.1%
2,"CC1CC(=O)OC(c2cccc3ccccc23)C1Br (stereo not drawn) [7a, Trans,trans-5-bromo-tetrahydro-4-methyl-6-(naphthalen-1-yl)pyran-2-one]",39 ± 0.02%
3,"C[C@@H]1CC(=O)O[C@@H]1[C@@H](O)c1cccc2ccccc12 [13a, Cis-dihydro-5-((S)-hydroxy(naphthalen-1-yl)methyl)-4-methylfuran-2(3H)-one]",44 ± 0.12%

# Same assay, conditions: human, AGS cells (human gastric adenocarcinoma), 0.5 μg/mL, 24 h, read-out: mean percentage of viable cells ± SD
row,SMILES,"viability at 24 h, 0.5 μg/mL"
1,"CC1CC(=O)OC(c2ccccc2)C1Br (stereo not drawn) [7b, Trans,trans-5-bromo-tetrahydro-4-methyl-6-phenylpyran-2-one]",25 ± 0.1%
2,"CC1CC(=O)OC(c2cccc3ccccc23)C1Br (stereo not drawn) [7a, Trans,trans-5-bromo-tetrahydro-4-methyl-6-(naphthalen-1-yl)pyran-2-one]",26 ± 0.05%
3,"C[C@@H]1CC(=O)O[C@@H]1[C@@H](O)c1cccc2ccccc12 [13a, Cis-dihydro-5-((S)-hydroxy(naphthalen-1-yl)methyl)-4-methylfuran-2(3H)-one]",39 ± 0.09%

# Same assay, conditions: human, AGS cells (human gastric adenocarcinoma), 5 μg/mL, 24 h, read-out: mean percentage of viable cells ± SD
row,SMILES,"viability at 24 h, 5 μg/mL"
1,"CC1CC(=O)OC(c2ccccc2)C1Br (stereo not drawn) [7b, Trans,trans-5-bromo-tetrahydro-4-methyl-6-phenylpyran-2-one]",23 ± 0.02%
2,"CC1CC(=O)OC(c2cccc3ccccc23)C1Br (stereo not drawn) [7a, Trans,trans-5-bromo-tetrahydro-4-methyl-6-(naphthalen-1-yl)pyran-2-one]",25 ± 0.1%
3,"C[C@@H]1CC(=O)O[C@@H]1[C@@H](O)c1cccc2ccccc12 [13a, Cis-dihydro-5-((S)-hydroxy(naphthalen-1-yl)methyl)-4-methylfuran-2(3H)-one]",29 ± 0.05%

# Same assay, conditions: human, AGS cells (human gastric adenocarcinoma), 10 μg/mL, 24 h, read-out: mean percentage of viable cells ± SD
row,SMILES,"viability at 24 h, 10 μg/mL"
1,"CC1CC(=O)OC(c2ccccc2)C1Br (stereo not drawn) [7b, Trans,trans-5-bromo-tetrahydro-4-methyl-6-phenylpyran-2-one]",20 ± 0.06%
2,"CC1CC(=O)OC(c2cccc3ccccc23)C1Br (stereo not drawn) [7a, Trans,trans-5-bromo-tetrahydro-4-methyl-6-(naphthalen-1-yl)pyran-2-one]",21 ± 0.03%
3,"C[C@@H]1CC(=O)O[C@@H]1[C@@H](O)c1cccc2ccccc12 [13a, Cis-dihydro-5-((S)-hydroxy(naphthalen-1-yl)methyl)-4-methylfuran-2(3H)-one]",18 ± 0.12%

# Same assay, conditions: human, AGS cells (human gastric adenocarcinoma), 20 μg/mL, 24 h, read-out: mean percentage of viable cells ± SD
row,SMILES,"viability at 24 h, 20 μg/mL"
1,"CC1CC(=O)OC(c2ccccc2)C1Br (stereo not drawn) [7b, Trans,trans-5-bromo-tetrahydro-4-methyl-6-phenylpyran-2-one]",14 ± 0.03%
2,"CC1CC(=O)OC(c2cccc3ccccc23)C1Br (stereo not drawn) [7a, Trans,trans-5-bromo-tetrahydro-4-methyl-6-(naphthalen-1-yl)pyran-2-one]",20 ± 0.06%
3,"C[C@@H]1CC(=O)O[C@@H]1[C@@H](O)c1cccc2ccccc12 [13a, Cis-dihydro-5-((S)-hydroxy(naphthalen-1-yl)methyl)-4-methylfuran-2(3H)-one]",10 ± 0.1%

# Same assay, conditions: human, AGS cells (human gastric adenocarcinoma), 50 μg/mL, 24 h, read-out: mean percentage of viable cells ± SD
row,SMILES,"viability at 24 h, 50 μg/mL"
1,"CC1CC(=O)OC(c2ccccc2)C1Br (stereo not drawn) [7b, Trans,trans-5-bromo-tetrahydro-4-methyl-6-phenylpyran-2-one]",10 ± 0.06%
2,"CC1CC(=O)OC(c2cccc3ccccc23)C1Br (stereo not drawn) [7a, Trans,trans-5-bromo-tetrahydro-4-methyl-6-(naphthalen-1-yl)pyran-2-one]",8 ± 0.03%
3,"C[C@@H]1CC(=O)O[C@@H]1[C@@H](O)c1cccc2ccccc12 [13a, Cis-dihydro-5-((S)-hydroxy(naphthalen-1-yl)methyl)-4-methylfuran-2(3H)-one]",8 ± 0.08%

# Tested on: AGS cell lines (human gastric adenocarcinoma)
# Assay: MTT reduction cytotoxicity assay
# Assay type: cell-based
# Settings: Homo sapiens
# Description: as §2, §3
row,SMILES,IC50
1,"CC1CC(=O)OC(c2ccccc2)C1Br (stereo not drawn) [7b, Trans,trans-5-bromo-tetrahydro-4-methyl-6-phenylpyran-2-one]",3.6 µM
2,"CC1CC(=O)OC(c2cccc3ccccc23)C1Br (stereo not drawn) [7a, Trans,trans-5-bromo-tetrahydro-4-methyl-6-(naphthalen-1-yl)pyran-2-one]",2.1 µM
3,"C[C@@H]1CC(=O)O[C@@H]1[C@@H](O)c1cccc2ccccc12 [13a, Cis-dihydro-5-((S)-hydroxy(naphthalen-1-yl)methyl)-4-methylfuran-2(3H)-one]",3.7 µM

# Tested on: not listed separately
# Assay: MTT reduction cytotoxicity assay
# Assay type: cell-based, mouse
# Settings: mouse, L929 cells (mouse fibroblasts), 0.1 μg/mL, read-out: mean percentage of viable cells ± SD
# Description: as §2, §3
row,SMILES,"viability at 24 h, 0.1 μg/mL"
1,"CC1CC(=O)OC(c2ccccc2)C1Br (stereo not drawn) [7b, Trans,trans-5-bromo-tetrahydro-4-methyl-6-phenylpyran-2-one]",25 ± 0.03%
2,"CC1CC(=O)OC(c2cccc3ccccc23)C1Br (stereo not drawn) [7a, Trans,trans-5-bromo-tetrahydro-4-methyl-6-(naphthalen-1-yl)pyran-2-one]",25 ± 0.02%
3,"C[C@@H]1CC(=O)O[C@@H]1[C@@H](O)c1cccc2ccccc12 [13a, Cis-dihydro-5-((S)-hydroxy(naphthalen-1-yl)methyl)-4-methylfuran-2(3H)-one]",16 ± 0.09%

# Same assay, conditions: mouse, L929 cells (mouse fibroblasts), 0.5 μg/mL, read-out: mean percentage of viable cells ± SD
row,SMILES,"viability at 24 h, 0.5 μg/mL"
1,"CC1CC(=O)OC(c2ccccc2)C1Br (stereo not drawn) [7b, Trans,trans-5-bromo-tetrahydro-4-methyl-6-phenylpyran-2-one]",18 ± 0.08%
2,"CC1CC(=O)OC(c2cccc3ccccc23)C1Br (stereo not drawn) [7a, Trans,trans-5-bromo-tetrahydro-4-methyl-6-(naphthalen-1-yl)pyran-2-one]",18 ± 0.12%
3,"C[C@@H]1CC(=O)O[C@@H]1[C@@H](O)c1cccc2ccccc12 [13a, Cis-dihydro-5-((S)-hydroxy(naphthalen-1-yl)methyl)-4-methylfuran-2(3H)-one]",12 ± 0.02%

# Same assay, conditions: mouse, L929 cells (mouse fibroblasts), 5 μg/mL, read-out: mean percentage of viable cells ± SD
row,SMILES,"viability at 24 h, 5 μg/mL"
1,"CC1CC(=O)OC(c2ccccc2)C1Br (stereo not drawn) [7b, Trans,trans-5-bromo-tetrahydro-4-methyl-6-phenylpyran-2-one]",13 ± 0.12%
2,"CC1CC(=O)OC(c2cccc3ccccc23)C1Br (stereo not drawn) [7a, Trans,trans-5-bromo-tetrahydro-4-methyl-6-(naphthalen-1-yl)pyran-2-one]",12 ± 0.02%
3,"C[C@@H]1CC(=O)O[C@@H]1[C@@H](O)c1cccc2ccccc12 [13a, Cis-dihydro-5-((S)-hydroxy(naphthalen-1-yl)methyl)-4-methylfuran-2(3H)-one]",9 ± 0.03%

# Same assay, conditions: mouse, L929 cells (mouse fibroblasts), 10 μg/mL, read-out: mean percentage of viable cells ± SD
row,SMILES,"viability at 24 h, 10 μg/mL"
1,"CC1CC(=O)OC(c2ccccc2)C1Br (stereo not drawn) [7b, Trans,trans-5-bromo-tetrahydro-4-methyl-6-phenylpyran-2-one]",10 ± 0.05%
2,"CC1CC(=O)OC(c2cccc3ccccc23)C1Br (stereo not drawn) [7a, Trans,trans-5-bromo-tetrahydro-4-methyl-6-(naphthalen-1-yl)pyran-2-one]",6 ± 0.07%
3,"C[C@@H]1CC(=O)O[C@@H]1[C@@H](O)c1cccc2ccccc12 [13a, Cis-dihydro-5-((S)-hydroxy(naphthalen-1-yl)methyl)-4-methylfuran-2(3H)-one]",6 ± 0.06%

# Same assay, conditions: mouse, L929 cells (mouse fibroblasts), 20 μg/mL, read-out: mean percentage of viable cells ± SD
row,SMILES,"viability at 24 h, 20 μg/mL"
1,"CC1CC(=O)OC(c2ccccc2)C1Br (stereo not drawn) [7b, Trans,trans-5-bromo-tetrahydro-4-methyl-6-phenylpyran-2-one]",5 ± 0.15%
2,"CC1CC(=O)OC(c2cccc3ccccc23)C1Br (stereo not drawn) [7a, Trans,trans-5-bromo-tetrahydro-4-methyl-6-(naphthalen-1-yl)pyran-2-one]",2 ± 0.03%
3,"C[C@@H]1CC(=O)O[C@@H]1[C@@H](O)c1cccc2ccccc12 [13a, Cis-dihydro-5-((S)-hydroxy(naphthalen-1-yl)methyl)-4-methylfuran-2(3H)-one]",5 ± 0.12%

# Same assay, conditions: mouse, L929 cells (mouse fibroblasts), 50 μg/mL, read-out: mean percentage of viable cells ± SD
row,SMILES,"viability at 24 h, 50 μg/mL"
1,"CC1CC(=O)OC(c2ccccc2)C1Br (stereo not drawn) [7b, Trans,trans-5-bromo-tetrahydro-4-methyl-6-phenylpyran-2-one]",2 ± 0.09%
2,"CC1CC(=O)OC(c2cccc3ccccc23)C1Br (stereo not drawn) [7a, Trans,trans-5-bromo-tetrahydro-4-methyl-6-(naphthalen-1-yl)pyran-2-one]",1 ± 0.12%
3,"C[C@@H]1CC(=O)O[C@@H]1[C@@H](O)c1cccc2ccccc12 [13a, Cis-dihydro-5-((S)-hydroxy(naphthalen-1-yl)methyl)-4-methylfuran-2(3H)-one]",1 ± 0.07%

# Tested on: not given
# Assay: not given
# Settings: not given
row,SMILES,melting point
1,"CC1CC(=O)OC(c2ccccc2)C1Br (stereo not drawn) [7b, Trans,trans-5-bromo-tetrahydro-4-methyl-6-phenylpyran-2-one]",111 to 112 °C
2,"CC1CC(=O)OC(c2cccc3ccccc23)C1Br (stereo not drawn) [7a, Trans,trans-5-bromo-tetrahydro-4-methyl-6-(naphthalen-1-yl)pyran-2-one]",197 to 198 °C
3,"C[C@@H]1CC(=O)O[C@@H]1[C@@H](O)c1cccc2ccccc12 [13a, Cis-dihydro-5-((S)-hydroxy(naphthalen-1-yl)methyl)-4-methylfuran-2(3H)-one]",123 to 124 °C

# Source: PMC6572184, “New γ-Halo-δ-lactones and δ-Hydroxy-γ-lactones with Strong Cytotoxic Activity” (Molecules, 2019)
